Data: US10239884B2, “Coelenterazine compounds and uses thereof” (KEIO UNIVERSITY, priority 2017, dated 2019)

What was measured:
[1] = molecular target: T1, native Renilla Luciferase (RLuc) (Renilla reniformis, UniProt P27652); test: Bioluminescence intensity, Renilla Luciferase luminescence system; type: biochemical; settings: 2 μM substrate in PBS pH 7.4, cell lysate, maximum intensity over 1 second, relative value
T1 construct: expressed in transfected cells; host or cells: COST cells (so in the source)
T1 sequence (P27652 1-311): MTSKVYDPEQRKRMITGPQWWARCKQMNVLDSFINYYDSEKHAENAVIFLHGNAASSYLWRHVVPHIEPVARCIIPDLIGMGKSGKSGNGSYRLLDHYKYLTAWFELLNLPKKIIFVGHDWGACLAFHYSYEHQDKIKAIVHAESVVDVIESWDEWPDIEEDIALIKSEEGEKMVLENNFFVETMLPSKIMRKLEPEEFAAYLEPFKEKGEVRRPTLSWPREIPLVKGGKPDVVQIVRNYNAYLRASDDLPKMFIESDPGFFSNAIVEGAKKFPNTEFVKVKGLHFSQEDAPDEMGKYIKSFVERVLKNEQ
Description: The luciferases were respectively expressed in COST cells using an expression vector (pcDNA3.1(+), commercially available from Invitrogen) comprising the sequence encoding native Renilla Luciferase (RLuc) (trade name pGL4.75, commercially available from Promega) or an expression vector (trade name pcDNA3.1(+), commercially available from Invitrogen) comprising the sequence encoding a RLuc derivative RLuc8 or RLuc8.6-535 (Reference: Loening, A. M. et al., Nat. Methods, 2007, 4, 641-643.). The cells were lysed using a Renilla Luciferase Lysis Buffer (E291A, Promega), and the lysate was directly used as an enzyme solution. […] Bioluminescence was measured according to the protocol of Renilla Luciferase Assay System (Cat. No. E 2810; Promega). The luminescent substrate was dissolved in methanol to prepare a 2 mM solution. The solution was diluted to 2 μM with PBS buffer (pH 7.4), and the diluted solution was used as a substrate solution. […] The luminescence intensity was measured with a Berthold Lumat LB 9507 for 1 second, and indicated by the maximum luminescence intensity (I). The luminescence intensity of the native CTZ by RLuc8 was set to be 1.0, and the other bioluminescence intensities were normalized to be relative values to that of native CTZ.

[2] = molecular target: T2, RLuc8 (Renilla reniformis, UniProt P27652, A143M/A55T/C124A/K136R/M185V/M253L/S130A/S287L); type: biochemical; settings: 2 μM substrate in PBS pH 7.4, cell lysate, maximum intensity over 1 second, relative value
T2 construct: expressed in transfected cells; host or cells: COST cells (so in the source)
Description: (§1) The luciferases were respectively expressed in COST cells using an expression vector (pcDNA3.1(+), commercially available from Invitrogen) comprising the sequence encoding native Renilla Luciferase (RLuc) (trade name pGL4.75, commercially available from Promega) or an expression vector (trade name pcDNA3.1(+), commercially available from Invitrogen) comprising the sequence encoding a RLuc derivative RLuc8 or RLuc8.6-535 (Reference: Loening, A. M. et al., Nat. Methods, 2007, 4, 641-643.). The cells were lysed using a Renilla Luciferase Lysis Buffer (E291A, Promega), and the lysate was directly used as an enzyme solution. […] Bioluminescence was measured according to the protocol of Renilla Luciferase Assay System (Cat. No. E 2810; Promega). The luminescent substrate was dissolved in methanol to prepare a 2 mM solution. The solution was diluted to 2 μM with PBS buffer (pH 7.4), and the diluted solution was used as a substrate solution. To 200 μL of the substrate solution, 4 μL of the cell lysate containing RLuc, RLuc 8 or RLuc8.6-535 was added to start the luminescent reaction. The luminescence intensity was measured with a Berthold Lumat LB 9507 for 1 second, and indicated by the maximum luminescence intensity (I). The luminescence intensity of the native CTZ by RLuc8 was set to be 1.0, and the other bioluminescence intensities were normalized to be relative values to that of native CTZ.

[3] = molecular target: T2, RLuc8; type: biochemical; settings: bioluminescence spectrum, ATTO LumiFL
Protocol: (§2) As in the method for measuring bioluminescence intensity described above, luminescence spectrum was measured according to the protocol of Renilla Luciferase Assay System (Cat. No. E 2810; Promega). The luminescence spectrum was measured using ATTO LumiFL. The maximum luminescence intensities were normalized to be relative values to 1.0 upon determination of the maximum luminescence wavelength.

[4] = system: GLuc; test: Bioluminescence intensity, ALuc system test; type: biochemical; settings: 0 minutes after the start of measurement, 1 μM substrate, relative to nCTZ/ALuc34
[5] = system: ALuc24; test: Bioluminescence intensity, ALuc system test; type: biochemical; settings: 1 μM substrate, relative to nCTZ/ALuc34
[6] = system: ALuc30; test: Bioluminescence intensity, ALuc system test; type: biochemical; settings: 1 μM substrate, relative to nCTZ/ALuc34
[7] = system: ALuc16; test: Bioluminescence intensity, ALuc system test; type: biochemical; settings: 1 μM substrate, relative to nCTZ/ALuc34
Protocol: (§3) The cells were lysed using a Renilla Luciferase Buffer (E291A; Promega), and the lysate was directly used as an enzyme solution. As luminescent substrates, native CTZ (Nanolight technology) and 6-Al2N3-CTZ (Example 17) were used. Bioluminescence was measured according to the protocol of a Renilla Luciferase Assay System (Cat. No. E2810; Promega). The luminescent substrate was dissolved in methanol to prepare a 1 mM solution. The solution was diluted to 1 μM with Promega buffer, and the diluted solution was used as a substrate solution. To 40 μL of the substrate solution, 10 μL of the cell lysate containing RLuc8.6-535, ALuc16, ALuc22, ALuc23 or ALuc34 was added for starting the luminescent reaction. Using Fujifilm LAS-4000, the luminescence intensities were measured 0 and 20 minutes after the start of the enzyme reaction. Further, from the results of bioluminescence intensity shown in FIG. 3, the bioluminescence intensities were summarized in Tables 4-1 and 4-2 below, where the luminescence intensities were normalized to be the relative values of nCTZ/ALuc34 (100%).

[8] = system: ALuc22; test: Bioluminescence intensity, ALuc system test; type: biochemical; settings: 1 μM substrate, relative to nCTZ/ALuc34
Protocol: as §3

[9] = system: ALuc23; test: Bioluminescence intensity, ALuc system test; type: biochemical; settings: 1 μM substrate, relative to nCTZ/ALuc34
Protocol: as §3

[10] = system: ALuc34; test: Bioluminescence intensity, ALuc system test; type: biochemical; settings: for luminescence intensity (%): 1 μM substrate, relative to nCTZ/ALuc34
Protocol: as §3

[11] = molecular target: T3, Renilla Luciferase (RLuc) (Renilla reniformis, UniProt P27652); settings: CTZ as luminescent substrate; cited from earlier work
T3 sequence (P27652 1-311): T1 sequence (P27652 1-311)

[12] = system: artificial bioluminescent enzyme (ALuc); settings: same wavelength range (480-500 nm); cited from earlier work
[13] = molecular target: T4, RLuc8.6-535 (Renilla reniformis, UniProt P27652, A123S/A143M/A55T/C124A/D154M/D162E/E155G/I163L/K136R/M185L/M253L/S130A/S287L); test: Bioluminescence intensity, ALuc system test; type: biochemical; set-up: expressed in transfected cells; settings: 1 μM substrate, relative to nCTZ/ALuc34
Protocol: as §3

[14] = molecular target: T4, RLuc8.6-535; type: biochemical; set-up: expressed in transfected cells; host or cells: COST cells (so in the source); settings: for RLuc8.6-535 luminescence intensity (%): 2 μM substrate in PBS pH 7.4, cell lysate, maximum intensity over 1 second, relative value
Description: as §1

[15] = molecular target: T4, RLuc8.6-535; type: biochemical; set-up: expressed in transfected cells; host or cells: COST cells (so in the source); settings: bioluminescence spectrum, ATTO LumiFL
Protocol: as §2

[16] = molecular target: T5, NanoLuc (Oplophorus gracilirostris, UniProt Q9GV45, A31E/A60N/A81I/F95D/I117V/K70R/L54V/L99Q/M102K/N193R/P142E/Q151K/Q38R/Q45L/V71I/Y165I); settings: combined with NanoLuc; cited from earlier work
T5 construct: literature Promega

[17] = ALuc24, 0 minutes after the start of measurement
[18] = ALuc24, 20 minutes after the start of measurement
[19] = ALuc30, 0 minutes after the start of measurement
[20] = ALuc30, 20 minutes after the start of measurement
[21] = ALuc16, 0 minutes after the start of measurement
[22] = ALuc16, 20 minutes after the start of measurement
[23] = ALuc22, 0 minutes after the start of measurement
[24] = ALuc22, 20 minutes after the start of measurement
[25] = ALuc23, 0 minutes after the start of measurement
[26] = ALuc23, 20 minutes after the start of measurement
[27] = ALuc34, 0 minutes after the start of measurement
[28] = ALuc34, 20 minutes after the start of measurement
[29] = RLuc8.6-535, 0 minutes after the start of measurement

T4 sequence (P27652 whole entry A55T/A123S/C124A/S130A/K136R/A143M/D154M/E155G/D162E/I163L/M185L/M253L/S287L): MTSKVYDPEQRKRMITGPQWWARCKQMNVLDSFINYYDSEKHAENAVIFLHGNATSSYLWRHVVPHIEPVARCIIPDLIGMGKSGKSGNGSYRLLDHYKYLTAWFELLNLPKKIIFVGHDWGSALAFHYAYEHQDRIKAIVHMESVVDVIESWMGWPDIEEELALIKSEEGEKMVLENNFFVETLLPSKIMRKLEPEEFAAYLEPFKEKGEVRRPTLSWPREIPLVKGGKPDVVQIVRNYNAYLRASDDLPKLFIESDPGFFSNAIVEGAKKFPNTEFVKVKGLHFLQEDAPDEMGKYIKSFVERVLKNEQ
T2 sequence (P27652 whole entry A55T/C124A/S130A/K136R/A143M/M185V/M253L/S287L): as the sequence (P27652 whole entry A55T/A123S/C124A/S130A/K136R/A143M/D154M/E155G/D162E/I163L/M185L/M253L/S287L) above, with S123A, M154D, G155E, E162D, L163I, L185V counted along it
T5 sequence (Q9GV45 28-196 with tags or gaps with the stated changes limits assumed): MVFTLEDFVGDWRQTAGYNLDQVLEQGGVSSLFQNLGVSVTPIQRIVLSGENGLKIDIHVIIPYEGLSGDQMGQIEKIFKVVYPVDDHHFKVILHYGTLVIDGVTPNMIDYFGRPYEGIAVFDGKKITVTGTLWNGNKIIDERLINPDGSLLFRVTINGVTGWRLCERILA

SMILES | RLuc luminescence intensity (%) [1] [%] | RLuc8 luminescence intensity (%) [2] [%] | RLuc8 half-width (nm) [3] | RLuc8 maximum luminescence wavelength (nm) [3] [nm] | luminescence intensity (%) [5, 17] [%] | luminescence intensity (%) [5, 18] [%] | luminescence intensity (%) [6, 19] [%] | luminescence intensity (%) [6, 20] [%] | luminescence intensity (%) [7, 21] [%] | luminescence intensity (%) [7, 22] [%] | luminescence intensity (%) [8, 23] [%] | luminescence intensity (%) [8, 24] [%] | luminescence intensity (%) [9, 25] [%] | luminescence intensity (%) [9, 26] [%] | luminescence intensity (%) [10, 27] [%] | luminescence intensity (%) [10, 28] [%] | luminescence intensity (%) [13, 29] [%] | RLuc8.6-535 luminescence intensity (%) [14] [%] | RLuc8.6-535 half-width (nm) [15] | RLuc8.6-535 maximum luminescence wavelength (nm) [15] [nm] | also measured
Oc1ccc(Cc2nc3c(Cc4ccccc4)nc(-c4ccc(O)cc4)cn3c2O)cc1 [Native-CTZ, coelenterazine] | 10.7 | 80.5 | [98] nm | 484 | 0.40 | 0.31 | 0.28 | 0.21 | 0.43 | 0.42 | 0.65 | 0.42 | 0.58 | 0.58 | 1.0 | 1 | 0.05 | 100 | [111] nm | 538 | luminescence intensity (%) [4]: 0.08%; quantum yield of the RLuc luminescence system [11]: 0.05; luminescence intensity higher than that of the conventional RLuc luminescence system [12]: about 50 fold; luminescence intensity (%) ([13]; RLuc8.6-535, 20 minutes after the start of measurement): 0.05%
O=c1c(Cc2ccc(O)cc2)nc2c(Cc3ccccc3)[nH]c(-c3ccc(OCCCO)cc3)cn1-2 [6-Alkyl3OH-CTZ] | 0.11 | 9.74 | [60] nm | 414 |  |  |  |  |  |  |  |  |  |  |  |  |  | 75.3 | [56] nm | 415 | luminescence intensity higher than that of DeepBlueC/RLuc8 ([14]; with RLuc8.6-535, versus conventional blue-shifted RLuc luminescence system (DeepBlueC/RLuc8)): 32 fold
O=c1c(Cc2ccco2)nc2c(Cc3ccccc3)[nH]c(-c3ccccc3)cn1-2 [Furimazine] |  |  |  |  |  |  |  |  |  |  |  |  |  |  |  |  |  |  |  |  | luminescence intensity higher than that of the firefly luciferase luminescence system [16]: about 100 fold
[N-]=[N+]=NCCOc1ccc(-c2cn3c(=O)c(Cc4ccc(O)cc4)nc-3c(Cc3ccccc3)[nH]2)cc1 [Example 6-Al2N3-CTZ] |  |  |  |  | 0.56 | 0.17 | 0.83 | 0.28 | 1.72 | 0.60 | 1.32 | 0.46 | 2.53 | 1.00 | 3.45 | 1.27 | 0.01 |  |  |  | luminescence intensity higher than that of native CTZ/ALuc34 ([10]; with ALuc34, immediately after the start of the measurement): about 3.4 fold
